Assay results taken from patent US10525073B2, “Method for improving kidney and/or heart function in patients with kidney disease” (MacKay Memorial Hospital, priority 2015, dated 2020).

How the values were obtained:
CKD rats [1] = assay: Cardiac muscle strain measurement by heart ultrasound in CKD rats; type: in vivo, Sprague Dawley rats; details: vs control animals
Method: SD rats (about 10 weeks old) scheduled to undergo 5/6 nephrectomy or sham surgery were anesthetized by Zoletil 50/Xylazine (6 mg/1.3 mg/Kg, i.p.). Then, the left kidney was exposed, and the upper and lower poles were tied with a suture line, followed by right nephrectomy. The peritoneum and skin were then sutured, and the animals were returned to their individual cages. For animals underwent sham surgery, the left kidney was exposed in similar manner, but was then placed back into the abdominal cavity without further treatment, peritoneum and skin were then sutured. Two weeks after sham or 5/6 nephrectomy surgery, the animals were subjected to a 24-hour urine collection and non-invasive tail blood pressure measurement every 4 weeks. […] Once the animal became unconscious, it was then connected to heart ultrasound machine (Vivid i, General Electric Company, US) and heart function paraments including changes in diastolic parameter-Tissue Velocity Imaging (TVI_V) and E/A ratio, the strain in cardia muscle (C_strain), and left ventrical mass ([…]) were respectively measured. […] Blood and urine samples were respectively collected on designated days and analyzed for the levels of blood urine nitrogen (BUN), serum creatine (CR), and hepatic enzymes (i.e., alanine aminotransferase (ALT) and aspartate aminotransferase (AST)). […]

CKD rats [2] = assay: Kidney fibrosis in kidney samples of CKD rats; type: in vivo, Sprague Dawley rats
Method: Sprague Dawley rats (7 weeks old) were kept in pathogen-free environment under 12:12 light-dark cycle with food and water provided ad libitum, ambient temperature and relative humidity were respectively set at 24±2° C. and 50±20%. All procedures involving animal studies of the present disclosure comply with the “Guideline for the Care and Use of Laboratory Animals” issued by The Chinese-Taipei Society of Laboratory Animal Sciences. SD rats (about 10 weeks old) scheduled to undergo 5/6 nephrectomy or sham surgery were anesthetized by Zoletil 50/Xylazine (6 mg/1.3 mg/Kg, i.p.). Then, the left kidney was exposed, and the upper and lower poles were tied with a suture line, followed by right nephrectomy. The peritoneum and skin were then sutured, and the animals were returned to their individual cages. For animals underwent sham surgery, the left kidney was exposed in similar manner, but was then placed back into the abdominal cavity without further treatment, peritoneum and skin were then sutured. Two weeks after sham or 5/6 nephrectomy surgery, the animals were subjected to a 24-hour urine collection and non-invasive tail blood pressure measurement every 4 weeks. Four weeks after the surgery, rats underwent 5/6 nephrectomy or shame surgery were randomly assigned into two groups, i.e., the control and the telbivudine groups, in which the control group received saline treatment, and rats in the telbivudine group received telbivudine (10 mg/mL/Kg) treatment for 8 or 12 weeks. […] Blood and urine samples were respectively collected on designated days and analyzed for the levels of blood urine nitrogen (BUN), serum creatine (CR), and hepatic enzymes (i.e., alanine aminotransferase (ALT) and aspartate aminotransferase (AST)). Heart function was determined by monitoring the changes in diastolic parameter-Tissue Velocity Imaging ([…] ratio, and the strain in cardia muscle (C_strain), left ventrical mass ([…]). Animals were sacrificed after the experiments were finished, and kidney biopsy samples were obtained.

CKD rats [3] = system: CKD rats; design: species or system Sprague Dawley rats; details: rat, in vivo
Description: 5/6 nephrectomy is a procedure in which one kidney of a test animal is removed and 2/3 of the remaining kidney is ablated, thereby mimics the progressive renal failure after loss of renal mass in humans. Briefly, approximately 50% of the remaining kidney of the rat was removed by polar excision 1-2 weeks after uni-nephrectomy. Then, the animals were randomly assigned to two groups, the telbivudine group and the control group. Rats in the telbivudine group were orally fed with telbivudine (at a dosage of 100 mg/Kg) for 4, 8 or 12 weeks, while the animals in the control group were given just the water. Blood and urine samples were respectively collected on designated days and analyzed for the levels of blood urine nitrogen (BUN), serum creatine (CR), and hepatic enzymes (i.e., alanine aminotransferase (ALT) and aspartate aminotransferase (AST)). Heart function was determined by monitoring the changes in diastolic parameter—Tissue Velocity Imaging (TVI_V), E/A ratio, and the strain in cardia muscle (C_strain), left ventrical mass (LVMASS). Animals were sacrificed after the experiments were finished, and kidney biopsy samples were obtained.
In this example, the effect of telbivudine on liver function was investigated.

## Cc1cn([C@@H]2C[C@@H](O)[C@H](CO)O2)c(=O)[nH]c1=O [telbivudine]
CKD rats [1]; CKD animals treated with telbivudine for 8 weeks
  C-strain values (strain in cardia muscle): significant improvement
CKD rats [1]; CKD animals treated with telbivudine for 12 weeks
  C-strain values (strain in cardia muscle): significant improvement
CKD rats [2]; telbivudine treatment for 8 weeks (FIG. 2 panel D)
  decrease of extent of kidney fibrosis: about 62.4%
CKD rats [2]; telbivudine treatment for 12 weeks (FIG. 2 panel D)
  decrease of extent of kidney fibrosis: ~79.2%
CKD rats [2]; telbivudine-treated vs untreated (FIG. 2 panel B vs C)
  extent of kidney fibrosis (photographs): significantly reduced
CKD rats [3]
  level of alanine aminotransferase (ALT): remained relatively the same
  level of aspartate aminotransferase (AST): remained relatively the same
  toxic effects toward liver function: does not possess any toxic effects
